Data published in US11591574B2, “Optical-quality surface that imparts spatial control of macrophage fusion” (ARIZONA BOARD OF REGENTS ON BEHALF OF ARIZONA STATE …, priority 2016, dated 2023).
“Also recorded” adds a separate entry of the source.

Tested on: macrophages
Assay: IL-4-induced macrophage fusion (fusion index)
Assay type: cell-based, mouse
Experimental: To test the rates of cell fusion on the above described glass slides with a pattern surface, monocytes or macrophages are collected according to standard protocols and applied to hydrocarbon chain surface. After 30 minutes, the cultures are washed 3 times rapidly with phosphate-buffered saline to remove unbound cells, and complete cell culture medium (DMEM:F12, 10% FBS, 1% antibiotics) is applied to the culture for about 2 hours. After about 2 hours, about 10 ng/ml of interleukin-4 is applied to the culture to induce fusion and the culture is incubated until the respective time point.
Macrophages were isolated from the mouse peritoneum 72 hr after injection of a sterile 4% solution of Brewer's thioglycollate (Sigma Aldrich, St. Louis, Mo.). […] Immediately following euthanasia, 5 mL of an ice-cold solution of phosphate-buffered saline (PBS, pH 7.4) supplemented with 5 mM EDTA was injected aseptically into the peritoneum, the lavage containing cells was collected, and the cells were counted with a Neubauer hemocytometer. […]
Peritoneal lavage cells were applied to various surfaces at a concentration of 2,000 cells/mm2 and incubated in 5% CO2 at 37° C. for 30 min. […] The extent of MGCs formation was evaluated by determining the fusion index. […] Three to 5 bright field images collected at 20× objective magnification were analyzed per specimen.

CCCCCCCC/C=C\CCCCCCCC(N)=O [oleamide]
increase in fusion versus clean glass (adsorption onto clean glass): ~4 fold | level of macrophage fusion (hydrocarbon deposited on optical-quality glass, IL-4 induced): high-levels; also recorded: high levels
